Test results taken from US6458391B1, “Compositions comprising oleum Melaleuca” (Safe ′N Sound Solutions, Inc., priority 1998, dated 2002).

Experiment: Toxicity and tissue irritation
Conditions: 1,8-cineole content of the oil

CC12CCC(CC1)C(C)(C)O2 [1,8-cineole]
concentration that produces tissue irritation: above 10%
